Data as given in article PMC11728683, “Colon-Targeted Poly(ADP-ribose) Polymerase Inhibitors Synergize Therapeutic Effects of Mesalazine Against Rat Colitis Induced by 2,4-Dinitrobenzenesulfonic Acid” (Pharmaceutics, 2024).
“Also recorded” adds a separate entry of the source.

Key:
[1] = Distribution coefficient (log D6.8), pH 6.8 isotonic phosphate buffer/n-octanol; format: physicochemical; conditions: n-octanol/pH 6.8 isotonic phosphate buffer; 1-octanol/isotonic phosphate buffer (pH 6.8)
Experimental: Distribution coefficients (log D6.8) of the PARP inhibitors and their derivatives were measured using a pH 6.8 isotonic phosphate buffer/n-octanol system, as described in a previous paper.

PARP = tested on: PARP; parameters: method as in PMID 30196390, PMID 17235412; conditions: cited from earlier work
[2] = tested on: murine macrophage RAW264.7 cells challenged with LPS; test: LPS-mediated induction of iNOS and COX-2 in RAW264.7 cells (Western blot); format: cell-based; conditions: pretreated 1 h with 5-ASA (20 mM), 3-AB (1 mM), 5-AIQ (10 μM), then LPS 24 h
Experimental: Tissue samples (0.2 g/mL) were homogenized in pre-chilled radioimmunoprecipitation assay buffer (50 mM Tris-HCl [pH 7.4], 1 mM EDTA, 0.7% Na deoxycholate, 1% NP-40, 150 mM NaCl, 0.3 μM aprotinin, 1 μM pepstatin, and 1 mM phenylmethylsulfonyl fluoride). The homogenates were centrifuged at 10,000× g at 4 °C for 10 min, followed by agitation on ice for 30 min. Whole and nuclear cell lysates were prepared as described previously. The protein concentrations in the lysates were determined using bicinchoninic acid (Thermo Fisher Scientific, Waltham, MA, USA) according to the manufacturer’s instructions. Cell and tissue lysates were separated by SDS-PAGE on 10% and 7.5% gels. Nrf2, HO-1, cyclooxygenase-2 (COX-2), and inducible nitric oxide synthase (iNOS) proteins were detected using the following antibodies: anti-Nrf2 (sc-365949, Santa Cruz Biotechnology, Dallas, TX, USA), anti-HO-1 (sc-136961, Santa Cruz Biotechnology), anti-COX-2 (sc-365374, Santa Cruz Biotechnology), anti-iNOS (NOS-2) antibody (sc-7271, Santa Cruz Biotechnology), and secondary antibodies corresponding to the primary antibodies (Santa Cruz Biotechnology). Protein bands were visualized using SuperSignal chemiluminescence substrate (Thermo Fisher Scientific). α-Tubulin were detected using antibodies specific to each protein (Santa Cruz Biotechnology) as loading controls. […]

[3] = Incubation in the cecal contents of rats (colonic activation); format: in vitro ADME, rat; conditions: 1 mM, 10% cecal contents, under nitrogen
Source text: Male Sprague–Dawley rats (250–260 g) were euthanized using CO2 gas before a midline incision was made. The contents of the intestinal tract were collected from the small intestine and cecum obtained from each of three rats and were suspended in pH 6.8 isotonic phosphate buffer to prepare a 20% (w/v) suspension. To maintain anaerobic conditions in the cecum, the cecal contents were collected under a N2 atmosphere in an atmospheric bag (AtmosBag, Sigma, St. Louis, MO, USA). Derivatives of PARP inhibitors (2 mM) dissolved in pH 6.8 isotonic phosphate buffer (5 mL) were mixed with the cecal and small intestinal suspensions (5 mL) and then incubated at 37 °C. The cecal contents were incubated in nitrogen. At predetermined time intervals, a 0.5 mL portion of the mixture was transferred to a microtube and centrifuged at 10,000× g at 4 °C for 10 min. The supernatants (0.1 mL) were mixed with MeOH (0.9 mL), followed by centrifugation at 10,000× g at 4 °C for 7 min. The supernatants were filtered through a membrane filter (0.45 μm), and the concentrations of PARP inhibitors in the filtrates (20 μL) were analyzed using HPLC.

DNBS-induced rat colitis = DNBS-induced rat colitis model (anticolitic effects); format: in vivo
Experimental: DNBS-induced colitis was produced in rats as previously described. Two independent animal experiments were performed to evaluate the anticolitic effects of the drugs. For the first experiment, the rats were divided into the following five treatment groups (n = 5 per group): group 1 (normal group), oral gavage of 1.0 mL of PBS; group 2 (colitis group), oral gavage of 1.0 mL of PBS; group 3 (5-AIQ-treated colitis group), oral gavage of 5-AIQ (5 mg/kg) in 1.0 mL of PBS; group 4 [AQSA-Glu-treated colitis group (L)], oral gavage of AQSA-Glu (7.5 mg/kg, equivalent to 2.5 mg/kg of 5-AIQ) in 1.0 mL of PBS; and group 5 [AQSA-Glu-treated colitis group (H)], oral gavage of AQSA-Glu (15 mg/kg, equivalent to 5 mg/kg of 5-AIQ) in 1.0 mL of PBS. For the second experiment, the rats were divided into the following six treatment groups (n = 5 per group): group 1 (normal group), oral gavage of 1.0 mL of PBS; group 2 (colitis group), oral gavage of 1.0 mL of PBS; group 3 (SSZ-treated colitis group), oral gavage of SSZ (50 mg/kg) in 1.0 mL of PBS; group 4 (AQSA-Glu-treated colitis group), oral gavage of AQSA-Glu (15 mg/kg) in 1.0 mL of PBS; group 5 (mixture of AQSA-Glu + OSZ-treated colitis group), oral gavage of mixture of AQSA-Glu (15 mg/kg) and OSZ (19 mg/kg, half-equimolar to 50 mg/kg of SSZ) in 1.0 mL of PBS; and group 6 (ABSA-treated colitis group), oral gavage of ABSA (36 mg/kg, equivalent to 50 mg/kg of SSZ) in 1.0 mL of PBS. Three days after the induction of inflammation, each drug was orally administered to rats once daily, and the anticolitic effects were assessed 24 h after the sixth medication. The animal experiment scheme is shown in Supplementary Data S1. The colonic damage score was calculated using a scoring system modified from previously reported criteria. The modified scoring system is shown in Supplementary Data S2. Four independent observers who were blinded to the treatment conditions scored colonic damage according to the scoring system. Myeloperoxidase (MPO) activity in the distal colon (4 cm) was measured as described previously.
Tissue samples (0.2 g/mL) were homogenized in pre-chilled radioimmunoprecipitation assay buffer (50 mM Tris-HCl [pH 7.4], 1 mM EDTA, 0.7% Na deoxycholate, 1% NP-40, 150 mM NaCl, 0.3 μM aprotinin, 1 μM pepstatin, and 1 mM phenylmethylsulfonyl fluoride). The homogenates were centrifuged at 10,000× g at 4 °C for 10 min, followed by agitation on ice for 30 min. Whole and nuclear cell lysates were prepared as described previously. The protein concentrations in the lysates were determined using bicinchoninic acid (Thermo Fisher Scientific, Waltham, MA, USA) according to the manufacturer’s instructions.
Cell and tissue lysates were separated by SDS-PAGE on 10% and 7.5% gels. Nrf2, HO-1, cyclooxygenase-2 (COX-2), and inducible nitric oxide synthase (iNOS) proteins were detected using the following antibodies: anti-Nrf2 (sc-365949, Santa Cruz Biotechnology, Dallas, TX, USA), anti-HO-1 (sc-136961, Santa Cruz Biotechnology), anti-COX-2 (sc-365374, Santa Cruz Biotechnology), anti-iNOS (NOS-2) antibody (sc-7271, Santa Cruz Biotechnology), and secondary antibodies corresponding to the primary antibodies (Santa Cruz Biotechnology). Protein bands were visualized using SuperSignal chemiluminescence substrate (Thermo Fisher Scientific). α-Tubulin were detected using antibodies specific to each protein (Santa Cruz Biotechnology) as loading controls. Western blot images were quantified using Image Lab software (version 5.2 build 14; Bio-Rad, Hercules, CA, USA). The means of the quantified values are presented under each Western blot (n = 3 for cell experiments and n = 5 for animal experiments).
The levels of the inflammatory cytokine-induced neutrophil chemoattractant-3 (CINC-3) in the inflamed distal colon were determined using a CINC-3 ELISA kit (R&D Systems, Minneapolis, MN, USA). […]

Caco-2 cell monolayer = test: Cell permeability via Caco-2 cell monolayer; format: in vitro ADME; conditions: 500 µM apical, concentration determined in basolateral compartment
Experimental: Caco-2 cells (4 × 10^5 per insert) were seeded and grown in Transwell 6-well inserts with a pore size of 0.4 μm (SPL Inc., Houston, TX, USA) until the transepithelial electrical resistance value (EMD Millipore, Billerica, MA, USA) reached 2000 Ω.cm^2. After removing the culture medium (DMEM) containing 1% penicillin/streptomycin from the basolateral and apical (insert) compartments, the apical compartment was filled with DMEM without phenol red (2 mL) containing PARP inhibitors and their derivatives (500 μM), whereas the basolateral compartment was filled with DMEM without phenol red (3 mL). At appropriate time intervals, the drug concentration in the basolateral compartment was determined by HPLC.

[4] = Drug concentration in the cecum after oral administration; format: in vivo, rat; conditions: rats
Experimental: Male Sprague–Dawley rats were fasted for 24 h but had access to water. 5-AIQ (10 mg/kg), AQSA-Glu (equivalent to 10 mg/kg 5-AIQ), 3-AB (17 mg/kg), and ABSA (equivalent to 17 mg/kg 3-AB) in PBS (1.0 mL) were administered to the rats by oral gavage. Blood samples were collected via cardiac puncture at 2, 4, and 8 h after the oral gavage. The blood samples were centrifuged at 10,000× g at 4 °C for 10 min to obtain the plasma (0.3 mL). The plasma (0.1 mL) was transferred to a centrifuge tube and mixed with methanol (0.9 mL). The supernatants were filtered through a membrane filter (0.45 μm), and then the filtrate (20.0 μL) was subjected to HPLC analysis. To determine drug concentrations in the cecum, cecal contents were collected at 2, 4, and 8 h after oral gavage and mixed with pH 6.8 isotonic phosphate buffer to make a 10% suspension, which was subjected to centrifugation at 10,000× g for 10 min at 4 °C. The supernatants (0.1 mL) were transferred to fresh microtubes, followed by the addition of MeOH (0.9 mL). After centrifugation at 10,000× g at 4 °C for 7 min and subsequent filtration through a membrane filter (0.45 μm), the concentrations of PARP inhibitors in the filtrates (20 μL) were analyzed using HPLC.

[5] = parameters: method as in PMID 31743034; conditions: SSZ at an effective dose; cited from earlier work
[6] = second experiment: SSZ 50 mg/kg, AQSA-Glu 15 mg/kg, AQSA-Glu 15 mg/kg + OSZ 19 mg/kg, ABSA 36 mg/kg, oral once per day, six treatments

NC(=O)c1cccc(N)c1 [3-AB, 3-aminobenzamide, reference compound]
logD [1]: 0.33 | concentrations eliciting significant PARP inhibition (PARP): millimolar

Nc1cccc2cnccc12 [5-AIQ, 5-aminoisoquinoline, reference compound]
logD [1]: 3.16 | concentrations eliciting significant PARP inhibition (PARP): micromolar

Nc1ccc(O)c(C(=O)O)c1 [5-ASA, 5-aminosalicylic acid]
levels of iNOS and COX-2 proteins [2]: reduced the levels of iNOS and COX-2 proteins

NC(=O)c1cccc(N=Nc2ccc(O)c(C(=O)O)c2)c1 [ABSA, 5-[(3-carbamoylphenyl)diazenyl]-2-hydroxybenzoic acid]
conversion rate in cecal contents [3]: slightly higher than that of the derivatives of 5-AIQ | effectiveness against rat colitis (anticolitic effects) (DNBS-induced rat colitis; second experiment, same doses): more effective against rat colitis than SSZ and AQSA-Glu | colonic damage and mucosal recovery (DNBS-induced rat colitis; [6]): greater effectiveness in healing colonic injury, including mucosa, than the other single-treatment groups; also recorded: as effective against colonic damage as the mixture | inflammatory indices: MPO activity, CINC-3, iNOS and COX-2 in inflamed colon (DNBS-induced rat colitis; [6]): greater; also recorded: suppressed to a greater extent by ABSA than by SSZ or AQSA | logD [1]: -1.07 | transport via the Caco-2 cell monolayer (cell permeability) (Caco-2 cell monolayer): less cell-permeable than 3-AB | amount of 3-AB delivered to the cecum ([4]; ABSA 36 mg/kg (equivalent to 17 mg/kg of 3-AB) vs 3-AB 17 mg/kg, 2, 4, 8 h): much greater amount | amount and temporal pattern of 5-ASA accumulation in the cecum ([4]; ABSA 36 mg/kg vs equimolar SSZ 50 mg/kg, 2, 4, 8 h): comparable

O=C(O)c1cc(N=Nc2cccc3cnccc23)ccc1O [AQSA, 2-hydroxy-5-(isoquinolin-5-yldiazenyl)benzoic acid]
logD [1]: 0.31

O=C(O)C[C@H](NC(=O)c1cc(/N=N/c2cccc3cnccc23)ccc1O)C(=O)O [AQSA-Asp]
logD [1]: -1.77

O=C(O)CC[C@H](NC(=O)c1cc(/N=N/c2cccc3cnccc23)ccc1O)C(=O)O [AQSA-Glu]
mucosal recovery (H&E staining of inflamed distal colon) (DNBS-induced rat colitis; first experiment, oral once per day for 6 days): greater mucosal recovery | colonic damage (colonic damage score) (DNBS-induced rat colitis; first experiment: AQSA-Glu 7.5 and 15 mg/kg (equivalent to 2.5 and 5 mg/kg of 5-AIQ) vs 5-AIQ 5 mg/kg, oral once per day for 6 days): substantially improved colonic damage in a dose-dependent manner and were more effective in ameliorating colonic damage than 5-AIQ | MPO activity and proinflammatory mediators (CINC-3, iNOS, COX-2) in inflamed distal colon (DNBS-induced rat colitis; first experiment: AQSA-Glu low and high doses vs 5-AIQ 5 mg/kg, oral once per day for 6 days): more effective in suppressing MPO activity and reducing proinflammatory mediators in the inflamed distal colon than 5-AIQ | effectiveness against rat colitis (DNBS-induced rat colitis; first experiment: AQSA-Glu low dose (2.5 mg/kg as 5-AIQ) vs 5-AIQ (5 mg/kg)): more effective against rat colitis than 5-AIQ | logD [1]: -1.83 | amount of 5-AIQ delivered to the cecum ([4]; AQSA-Glu 29.3 mg/kg (equivalent to 10 mg/kg of 5-AIQ) vs 5-AIQ 10.0 mg/kg, 2, 4, 8 h): much greater amount

O=C(O)c1cc(/N=N/c2ccc(S(=O)(=O)Nc3ccccn3)cc2)ccc1O [SSZ, Sulfasalazine]
colonic concentrations of 5-ASA after oral administration [5]: millimolar levels
